Results reported in BindingDB's records for doi:10.1038/nchembio.1865 (University of British Columbia, 2015).

Biological target: T1, Pancreatic alpha-amylase (Homo sapiens, UniProt P04746)
T1 sequence (P04746 whole entry): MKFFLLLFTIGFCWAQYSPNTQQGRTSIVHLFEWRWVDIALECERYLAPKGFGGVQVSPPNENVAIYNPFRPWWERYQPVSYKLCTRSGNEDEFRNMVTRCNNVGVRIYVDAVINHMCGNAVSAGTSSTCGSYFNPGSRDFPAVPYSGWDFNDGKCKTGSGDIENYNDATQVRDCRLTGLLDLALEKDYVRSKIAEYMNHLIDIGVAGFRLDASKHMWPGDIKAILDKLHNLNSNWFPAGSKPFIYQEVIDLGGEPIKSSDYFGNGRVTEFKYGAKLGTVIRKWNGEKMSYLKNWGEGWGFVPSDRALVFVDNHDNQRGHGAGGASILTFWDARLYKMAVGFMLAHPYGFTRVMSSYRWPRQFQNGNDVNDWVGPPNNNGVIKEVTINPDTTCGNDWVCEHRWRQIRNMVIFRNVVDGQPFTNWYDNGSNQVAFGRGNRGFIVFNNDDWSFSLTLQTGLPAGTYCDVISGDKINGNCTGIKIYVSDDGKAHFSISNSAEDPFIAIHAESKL
Assay: Kinetic Studies
Settings: 30 °C
Procedure: 2-Chloro-4-nitrophenyl α-d-maltotrioside (CNP-G3) was used as the substrate in a similar range of concentrations. Initial reaction rates for the release of chloronitrophenolate were measured and the further progress of substrate cleavage monitored continuously. Reactions were performed on a Varian Cary 4000 UV/Vis spectrophotometer at 400 nm and 30 °C.

Compared with `C[C@@H]1O[C@@H](Oc2c(-c3cc(O)c(O[C@@H]4OC[C@@H](O)[C@H](O)[C@H]4O)c(O)c3)oc3cc(O)cc(O)c3c2=O)[C@H](O[C@@H]2O[C@H](CO)[C@@H](O)[C@H](O)[C@H]2O[C@@H]2O[C@H](CO)[C@@H](O)[C@H](O)[C@H]2O)[C@H](O)[C@H]1O` [MbA-CR (8)], `C[C@@H]1O[C@@H](O[C@@H]2CO[C@@H](Oc3c(O)cc(-c4oc5cc(O)cc(O)c5c(=O)c4O[C@@H]4O[C@@H](C)[C@H](O)[C@@H](O)[C@H]4O[C@@H]4O[C@H](CO)[C@@H](O)[C@H](O)[C@H]4O[C@@H]4O[C@H](CO)[C@@H](O)[C@H](O)[C@H]4O)cc3O)[C@H](O)[C@H]2O)[C@H](O)[C@H](O)[C@H]1O` [MbA-C (6)] is 64-fold lower in Ki: 46800 nM for the first, 730 nM for the second. The second binds more tightly here.

First: C[C@@H]1O[C@@H](O[C@@H]2CO[C@@H](Oc3c(O)cc(-c4oc5cc(O)cc(O)c5c(=O)c4O[C@@H]4O[C@@H](C)[C@H](O)[C@@H](O)[C@H]4O[C@@H]4O[C@H](COC(=O)/C=C/c5ccc(O)c(O)c5)[C@@H](O)[C@H](O)[C@H]4O)cc3O)[C@H](O)[C@H]2O)[C@H](O)[C@H](O)[C@H]1O [MbA-G (1)]
Second: C[C@@H]1O[C@@H](Oc2c(-c3cc(O)c(O[C@@H]4OC[C@@H](O)[C@H](O)[C@H]4O)c(O)c3)oc3cc(O)cc(O)c3c2=O)[C@H](O[C@@H]2O[C@H](COC(=O)/C=C/c3ccc(O)c(O)c3)[C@@H](O)[C@H](O)[C@H]2O)[C@H](O)[C@H]1O [MbA-GR (4)]
The Ki of the first is 8.7-fold lower: 9.1 nM for the first, 79.3 nM for the second. The first binds more tightly here.

First: C[C@@H]1O[C@@H](Oc2c(-c3cc(O)c(O[C@@H]4OC[C@@H](O)[C@H](O)[C@H]4O)c(O)c3)oc3cc(O)cc(O)c3c2=O)[C@H](O[C@@H]2O[C@H](CO)[C@@H](O)[C@H](O)[C@H]2O)[C@H](O)[C@H]1O [MbA-CGR (9)]
Second: C[C@@H]1O[C@@H](O[C@@H]2CO[C@@H](Oc3c(O)cc(-c4oc5cc(O)cc(O)c5c(=O)c4O[C@@H]4O[C@@H](C)[C@H](O)[C@@H](O)[C@H]4O[C@@H]4O[C@H](CO)[C@@H](O)[C@H](O)[C@H]4O)cc3O)[C@H](O)[C@H]2O)[C@H](O)[C@H](O)[C@H]1O [MbA-CG (7)]
The Ki of the first is 57-fold higher: 128000 nM for the first, 2240 nM for the second.

First: O=C(/C=C/c1ccc(O)c(O)c1)NCc1cn(CCCCCCOc2c(-c3ccc(O)c(O)c3)oc3cc(O)cc(O)c3c2=O)nn1 [mini-MbA analog inhibitor 10]
Second: C[C@@H]1O[C@@H](Oc2c(-c3cc(O)c(O)c(O)c3)oc3cc(O)cc(O)c3c2=O)[C@H](O[C@@H]2O[C@H](COC(=O)/C=C/c3ccc(O)c(O)c3)[C@@H](O)[C@H](O)[C@H]2O)[C@H](O)[C@H]1O [mini-MbA]
The Ki of the first is 150-fold higher: 13900 nM for the first, 93.3 nM for the second.

`C[C@@H]1O[C@@H](Oc2c(-c3cc(O)c(O)c(O)c3)oc3cc(O)cc(O)c3c2=O)[C@H](O[C@@H]2O[C@H](COC(=O)/C=C/c3ccc(O)c(O)c3)[C@@H](O)[C@H](O)[C@H]2O[C@@H]2O[C@H](CO)[C@@H](O)[C@H](O)[C@H]2O)[C@H](O)[C@H]1O` [MbA-RX (3)] gave a Ki of 42.4 nM.
